In general, IC50 refers to the concentration at which inhibition is half-maximal.

IC50 data for four compounds are collected here from patent US6150359A, “Naphthyridinones for inhibiting protein tyrosine kinase and cell cycle kinase mediated cellular proliferation” (Warner-Lambert Company, priority 2000, dated 2000).

One assay has as its target T1, PDGF receptor (Rattus norvegicus, UniProt Q05030).
T1 construct: endogenous in cells; host or cells: rat aorta smooth muscle cells, primary culture, passages 5 to 20
The assay is described as follows: PDGF Receptor Autophosphorylation Assay in rat aorta smooth muscle cells. The assay is classed as cell-based. The conditions noted are these: PDGF-BB 30 ng/mL, 5 minutes, 2 hours preincubation, read-out: Inhibition of PDGF-Stimulated Receptor Autophosphorylation IC50. The procedure:
PDGF Receptor Autophosphorylation Assay. Rat aorta smooth muscle cells (RASMC.) are isolated from the thoracic aorta of rats and explanted according to the method of Ross, J. Cell. Biol., 1971;30:172-186. Cells are grown in Dulbecco's modified Eagle's medium (DMEM, Gibco) containing 10% fetal calf serum (FBS, Hyclone, Logan, Utah), 1% glutamine (Gibco), and 1% penicillin/streptomycin (Gibco). Cells are identified as smooth muscle cells by their "hill and valley" growth pattern and by fluorescent staining with a monoclonal antibody specific for SMC […] (Sigma). RASMC are used between passages 5 and 20 for all experiments. Test compounds are prepared in dimethylsulfoxide (DMSO) in order to achieve consistency in the vehicle and to ensure compound solubility. Appropriate DMSO controls are simultaneously evaluated with the test compounds.
Rat aortic smooth muscle cells are grown to confluency in 100 mm dishes. Growth medium is removed and replaced with serum-free medium, and cells are incubated at 37° C. for an additional 24 hours. Test compounds are then added directly to the medium and cells incubated for an additional 2 hours. After 2 hours, PDGF-BB is added at a final concentration of 30 ng/mL for 5 minutes at 37° C. to stimulate autophosphorylation of PDGF receptors. Following growth factor treatment, the medium is removed, and cells are washed with cold phosphate-buffered saline and immediately lysed with 1 mL of lysis buffer (50 mM Hepes, pH 7.5, 150 mM NaCl, 10% glycerol, 1% Triton-X 100, 1 mM EDTA, 1 mM EGTA, 50 mM NaF, 1 mM sodium orthovanadate, 30 mM p-nitrophenyl phosphate, 10 mM sodium pyrophosphate, 1 mM phenylmethyl sulfonyl fluoride, 10 μg/mL aprotinin, and 10 μg/mL leupeptin). Lysates are centrifuged at 10,000×g for 10 minutes. Supernatants are incubated with 10 μL of rabbit anti-human PDGF type AB receptor antibody (1:1000) for 2 hours. Following the incubation, protein-A-sepharose beads are added for 2 hours with continuous mixing, and immune complexes bound to the beads washed four times with 1 mL lysis wash buffer. Immune complexes are solubilized in 40 μL of Laemmli sample buffer and electrophoresed in 8% to 16% SDS polyacrylamide gels. […] Following extensive washing with PBS-0.2% tween-20, the blots are incubated with horseradish peroxidase labeled goat anti-mouse IgG (1:5000; Bio-Rad Inc., Hercules, Calif.), and protein levels are detected by enhanced chemiluminescence (ECL) detection system according to the instructions of the supplier (Amersham Inc., Arlington Heights, Ill.). The density of the protein bands are determined using NIH Image software (v. 1.56) and IC50 values are generated from the densitometric data.

In the next assay the target is Protein kinase C (PKC). The assay is described as follows: Protein kinase C (PKC) assay. The assay is classed as biochemical. The conditions noted are these: rat brain preparation. The procedure:
Other Kinases. c-Src kinase is purified from baculovirus infected insect cell lysates using an antipeptide monoclonal antibody directed against the N-terminal 2-17 amino acids as described previously by Fry, et al., Anticancer Drug Design, 1994;9:331-351. Protein kinase C (PKC.) is obtained as a rat brain preparation from Promega.
Other Kinases. An assay using the intracellular kinase domains of insulin receptor (INSr) is performed as described for the EGF receptor except that 10 mM manganese chloride is included in the reaction. The PKC assay is performed as previously described by Martiny-Baron, et al., J. Biol. Chem., 1993;268:9194-9197.

For a further assay, the system named is HCT-8 cells. The assay is described as follows: Human Colon Carcinoma Clonogenic Assay, HCT-8. The assay is classed as cell-based. Conditions: HCT-8, 2 days with drug, colonies after approximately 2 weeks. Here is the method:
Human Colon Carcinoma Clonozenic Assay. Human colon carcinoma cells are seeded into 6 well plates in volumes of 3 mL and allowed to incubate overnight (37° C., 5% CO2, 95% air). SW-620 cells are seeded at 7×10^5 per well; HCT-8 cells are seeded at 5×10^5 per well; HT-29 cells are seeded at 4×10^5 cells per well. Serially diluted drugs are prepared at 200 times the final concentration, and 15 μL are added to each of duplicate wells. Cells are incubated with drug for 2 days, rinsed once with 1 mL of trypsin+EDTA, and then trypsinized with the same trypsin solution. After trituration and centrifugation at 750×g for 3 minutes, the cells are suspended in serum-free growth medium and counted using an electronic particle counter. An agarose mixture appropriate for the cloning of each cell line is made using 10% fetal bovine serum in growth medium (SW-620-0.35% agarose, HCT-8 and HT-29-0.4% agarose). […] One; milliliter of each of these cell suspensions is added to duplicate wells of 6 well plates previously prepared with 10% serum/growth medium/1% agarose plugs. The cells in these plates are incubated for approximately 2 weeks in the incubator and stained with 1 mL per well of 1 mg/mL iodonitrotetrazolium violet stain. The visible colonies are counted with an electronic optical colony counter and the clonogenicity of treated cells calculated in comparison to untreated control cells.

Assay [1] deals with T2, PDGFr (mouse PDGF-β receptor tyrosine kinase) (Mus musculus, UniProt P05622).
T2 construct: PCR primers are designed to amplify a fragment of DNA that codes for the intracellular tyrosine kinase domain; made in house; host or cells: Sf9 insect cells (baculovirus), cell lysate
The assay is described as follows: PDGFr tyrosine kinase assay, 32P incorporation into glutamate-tyrosine copolymer. The assay is classed as biochemical. The conditions noted are these: 50 μM ATP. The procedure: Platelet Derived Growth Factor Receptor (PDGFr) and Fibroblast Growth Factor Receptor (FGFr). Full length cDNAs for the mouse PDGF-β and human FGF-1 (flg) receptor tyrosine kinases were obtained from J. Escobedo and are prepared as described in J. Biol. Chem., 1991;262:1482-1487. PCR primers are designed to amplify a fragment of DNA that codes for the intracellular tyrosine kinase domain. The fragment is melded into a baculovirus vector, cotransfected with AcMNPV DNA, and the recombinant virus isolated. SF9 insect cells are infected with the virus to overexpress the protein, and the cell lysate is used for the assay.
PDGFr and FGFr. […] Briefly, to each well is added 82.5 μL of incubation buffer containing 25 mM Hepes (pH 7.0), 150 mM NaCl, 0.1% Triton X-100, 0.2 mM PMSF, 0.2 mM sodium vanadate, 10 mM manganese chloride, and 750 μg/mL of poly (4:1) glutamate-tyrosine followed by 2.5 μL of inhibitor and 5 μL of enzyme lysate (7.5 μg/μL FGFR-TK or 6.0 μg/μL PDGFR-TK) to initiate the reaction. Following a 10 minute incubation at 25° C., 10 μL of [γ^32 P]ATP (0.4 μCi plus 50 μM ATP) is added to each well, and samples are incubated for an additional 10 minutes at 25° C. The reaction is terminated by the addition of 100 μL of 30% trichloroacetic acid (TCA) containing 20 mM sodium pyrophosphate and precipitation of material onto glass fiber filter mats (Wallac). […] Nonspecific activity is defined as radioactivity retained on the filters following incubation of samples with buffer alone; (no enzyme). Specific enzymatic activity is defined as total activity (enzyme plus buffer) minus nonspecific activity.

T1 sequence (Q05030 32-1097): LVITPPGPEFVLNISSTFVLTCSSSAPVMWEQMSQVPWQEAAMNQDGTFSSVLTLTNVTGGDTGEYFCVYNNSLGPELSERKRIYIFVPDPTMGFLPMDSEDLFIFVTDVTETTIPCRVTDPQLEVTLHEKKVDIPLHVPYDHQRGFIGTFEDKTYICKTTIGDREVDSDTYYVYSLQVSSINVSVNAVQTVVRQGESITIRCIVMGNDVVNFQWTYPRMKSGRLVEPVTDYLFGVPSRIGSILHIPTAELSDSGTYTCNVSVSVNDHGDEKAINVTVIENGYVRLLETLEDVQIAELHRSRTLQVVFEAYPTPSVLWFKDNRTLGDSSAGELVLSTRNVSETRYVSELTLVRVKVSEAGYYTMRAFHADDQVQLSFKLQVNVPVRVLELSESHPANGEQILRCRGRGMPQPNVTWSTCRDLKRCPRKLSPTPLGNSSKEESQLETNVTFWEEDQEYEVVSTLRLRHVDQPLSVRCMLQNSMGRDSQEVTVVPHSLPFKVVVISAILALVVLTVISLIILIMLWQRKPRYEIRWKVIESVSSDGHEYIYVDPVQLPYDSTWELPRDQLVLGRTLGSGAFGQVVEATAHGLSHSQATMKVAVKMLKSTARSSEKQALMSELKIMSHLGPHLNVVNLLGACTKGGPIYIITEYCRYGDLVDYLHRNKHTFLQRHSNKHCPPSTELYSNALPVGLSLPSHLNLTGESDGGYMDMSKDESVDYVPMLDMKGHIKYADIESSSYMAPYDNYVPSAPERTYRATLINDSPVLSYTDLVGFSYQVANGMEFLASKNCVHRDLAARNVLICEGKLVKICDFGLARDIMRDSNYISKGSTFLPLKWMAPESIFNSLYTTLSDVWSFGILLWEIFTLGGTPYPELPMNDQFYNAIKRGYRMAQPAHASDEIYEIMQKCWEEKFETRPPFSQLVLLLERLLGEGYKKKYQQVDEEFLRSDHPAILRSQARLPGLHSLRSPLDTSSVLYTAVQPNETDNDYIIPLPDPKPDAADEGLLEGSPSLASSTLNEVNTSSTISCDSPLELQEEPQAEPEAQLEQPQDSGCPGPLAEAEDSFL
T2 sequence (P05622 599-961 limits assumed): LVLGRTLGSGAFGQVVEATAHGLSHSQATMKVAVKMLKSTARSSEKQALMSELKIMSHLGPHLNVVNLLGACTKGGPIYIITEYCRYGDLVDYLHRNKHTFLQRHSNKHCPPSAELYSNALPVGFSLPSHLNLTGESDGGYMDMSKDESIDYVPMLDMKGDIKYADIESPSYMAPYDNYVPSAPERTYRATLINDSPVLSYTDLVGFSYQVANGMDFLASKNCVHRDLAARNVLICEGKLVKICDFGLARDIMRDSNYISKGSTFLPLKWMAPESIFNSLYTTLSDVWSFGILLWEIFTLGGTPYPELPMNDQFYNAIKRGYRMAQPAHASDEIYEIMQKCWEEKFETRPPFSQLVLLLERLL

Consider `CCN(CC)CCCCNc1cc2c(cn1)cc(-c1c(Cl)cccc1Cl)c(=O)n2C` [Example F, 3-(2,6-dichlorophenyl)-7-[4-(diethylamino)butylamino]-1-methyl-1H-[1,6]naphthyridin-2-one], for which the IC50 at PDGF receptor is 490 nM; at Protein kinase C (PKC), more than 50000 nM; in the assay with HCT-8 cells, more than 5000 nM; in assay [1], 420 nM.
On the same counts, the results for `CN1CCN(CCCNc2cc3c(cn2)cc(-c2c(Cl)cccc2Cl)c(=O)n3C)CC1` [Example H, 3-(2,6-dichlorophenyl)-1-methyl-7-[3-(4-methylpiperazin-1-yl)propylamino]-1H-[1,6]naphthyridin-2-one] are more than 10000 nM, less than 50000 nM, more than 5000 nM and 890 nM.
The like results for `CCN(CC)CCOc1ccc(Nc2cc3c(cn2)cc(-c2c(Cl)cccc2Cl)c(=O)n3C)cc1` [Example P, 3-(2,6-dichlorophenyl)-7-[(4-(2-(diethylamino)ethoxy)phenyl)amino]-1-methyl-1H-[1,6]naphthyridin-2-one] were, in that order, 230 nM, more than 50000 nM, more than 5000 nM and 90 nM.
With `CN1CCN(CCOc2ccc(Nc3cc4c(cn3)cc(-c3c(Cl)cccc3Cl)c(=O)n4C)cc2)CC1` [Example S, 3-(2,6-dichlorophenyl)-1-methyl-7-[(4-(2-(4-methylpiperazin-1-yl)ethoxy)phenyl)amino]-1H-[1,6]naphthyridin-2-one], the IC50 came out at 810 nM at PDGF receptor and 340 nM in assay [1].
